Experimental data taken from PMC6757289, “Design and Characterization of SGK3-PROTAC1, an Isoform Specific SGK3 Kinase PROTAC Degrader” (ACS Chemical Biology, 2019).

Biological target: T1, CDK18 (Homo sapiens, UniProt Q07002)
T1 construct: global proteomic analysis of HEK293 cells treated in the presence or absence of 0.3 μM SGK3-PROTAC1; endogenous in cells; host or cells: HEK293
Assay: TMT global proteomic analysis of HEK293 cells
Assay type: cell-based
Settings: HEK293, 0.3 μM, 8 h
Experimental: To establish the specificity of SGK3-PROTAC1 employing an unbiased approach, we performed quantitative Tandem–Mass–Tag (TMT)-labeled global proteomic analysis of HEK293 cells treated in the presence or absence of 0.3 μM SGK3-PROTAC1 compared to either 0.3 μM cisSGK3-PROTAC1 or DMSO for 8 h. Experiments were undertaken in triplicate, and analysis in Proteome Discoverer v2.2 using the Mascot search engine allowed relative quantification of 8766 proteins.
Figure 4 TMT proteomic analysis of HEK293 cells treated with SGK3-PROTAC1. (A) Cells were treated with DMSO (control), SGK3-PROTAC1 (0.3 μM), or cisSGK3-PROTAC1 (0.3 μM) for 8 h and lysed. Lysates were subjected to immunoblot analysis with the indicated antibodies. (B) Lysates were examined by quantitative proteomics. […]
Cell culture and proteomic sample preparation
Cells pellets were lysed with 2 ml of lysis buffer (8 M Urea, 50 mM Ammonium bicarbonate containing protease inhibitor and phosphatase inhibitor). The sample were left on ice for 15 min and were then sonicated for 5 min in ice-cold water bath under high intensity with 30 sec on and off. After sonication, benzonase® endonuclease (Merck Millipore) with the volume ratio of 1: 100 were added into the lysate to degrade DNA and RNA. The lysate were then centrifuged at 12,000 rpm for 15 min at 4 °C, and supernatants were transferred into new eppendorf tubes. The protein concentration were measured with BCA assay (Pierce™ BCA Protein Assay Kit, Thermo). The lysate from each sample was reduced with 5 mM DTT at 45 °C for 30 min. Lysates were briefly centrifuged and were cool down to room temperature before alkylation in the dark with 10 mM iodoacetamide at room temperature. The alkylation was then quenched by the addition of 5 mM DTT. Samples were first digested by Lys-C with the weight ratio of 1:200 (w/w) for 4 h at 30 °c. Then, sample were diluted with 50 mM ammonium bicarbonate to 1.5 M Urea concentration. Samples were then digested with trypsin (Pierce trypsin, Thermo) at an enzyme to protein ratio of 1:50 (w/w) at room temperature with gentle shaking for overnight.
The digest was stopped by the addition of 1% TFA (v/v), centrifuged at 10,000 g for 10 min at room temperature.
The supernatant were desalted on 200 mg SepPak tC18 cartridge (Waters). Desalted peptides were dried by vacuum centrifugation using Speedvac (Thermo).
TMT labelling and Basic C18 reverse phase (bRP) chromatography fractionation Each sample (200 μg of peptides each) was re-suspended in 100 μL of 100 mM TEAB buffer. The TMT labelling reagents were equilibrated to room temperature and 41 μL anhydrous acetonitrile was added to each reagent channel and softly vortexed for 10 min. Peptides were transferred to the corresponding TMT channels and incubated for 1 h at room temperature. The reaction was quenched with 8 μL of 5% hydroxylamine. To ensure complete labelling, 1 µg of labelled samples from each channel were analyzed by LC-MS/MS prior to mix. After evaluation, the complete TMT labelled 9 samples were then combined, acidified and dried. Sep-Pak desalting was then performed and the elution was dried to completeness.
Ultimate 3000 high-pressure liquid chromatography (HPLC) system (Dionex) were used for basic C18 reverse phase chromatography fractionation operating at 569 µL/min with two buffers: buffer A (10 mM ammonium formate, pH 10) and buffer B (80% ACN, 10 mM ammonium formate, pH 10). […]

T1 sequence (Q07002 whole entry): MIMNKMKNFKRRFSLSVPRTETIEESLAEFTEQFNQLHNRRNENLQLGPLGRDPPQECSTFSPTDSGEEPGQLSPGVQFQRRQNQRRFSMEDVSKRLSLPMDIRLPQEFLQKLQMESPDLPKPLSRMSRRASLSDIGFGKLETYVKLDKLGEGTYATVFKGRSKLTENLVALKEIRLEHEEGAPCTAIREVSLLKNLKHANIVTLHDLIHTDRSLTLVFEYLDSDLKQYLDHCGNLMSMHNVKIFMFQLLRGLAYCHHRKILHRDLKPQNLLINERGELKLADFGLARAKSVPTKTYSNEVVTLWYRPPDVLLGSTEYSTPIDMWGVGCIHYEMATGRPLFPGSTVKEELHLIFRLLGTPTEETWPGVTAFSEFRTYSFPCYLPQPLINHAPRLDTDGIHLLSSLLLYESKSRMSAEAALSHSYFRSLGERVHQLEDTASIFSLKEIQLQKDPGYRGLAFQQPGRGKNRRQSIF

Row | SMILES | Abundances (Grouped) | Ratio: (SGK3-PROTAC1) / (cSGK3-PROTAC1) | Ratio: (compound) / (DMSO)
1 | Cc1ccc(F)c(S(=O)(=O)Nc2ccc(-c3nc(OC[C@H]4CN(CCCCCCOCCOCCOCC(=O)N[C@H](C(=O)N5C[C@H](O)C[C@H]5C(=O)NCc5ccc(-c6scnc6C)cc5)C(C)(C)C)CCO4)c4cn[nH]c4n3)cc2)c1 [SGK3-PROTAC1] | 66.1 | 0.727 | 0.652
2 | Cc1ccc(F)c(S(=O)(=O)Nc2ccc(-c3nc(OC[C@H]4CN(CCCCCCOCCOCCOCC(=O)N[C@H](C(=O)N5C[C@@H](O)C[C@H]5C(=O)NCc5ccc(-c6scnc6C)cc5)C(C)(C)C)CCO4)c4cn[nH]c4n3)cc2)c1 [cisSGK3-PROTAC1] | 126.5 | – | 1.144
